Results on 12 compounds are retold here after patent US20190367737A1, “CELL-PENETRATING FLUORESCENT DYES WITH SECONDARY ALCOHOL FUNCTIONALITIES” (Max-Planck-Gesellschaft zur foerderung der Wissenschaften …, priority 2016, published 2019).

Where “and” joins values, the source holds several entries; their conditions need not be identical. Equal values may be shown once. Read-outs that look alike come from different tables or passages of the source.

Data set [1] can be described thus: Absorption, emission and fluorescence quantum yield of the dyes. To be noted: for fluorescence quantum yield: in PBS / aqueous buffers; for fluorescence quantum yield relative to Oxazine 1: PBS 7.4, Oxazine 1 Φfl=0.14 in ethanol. The format is physicochemical. The method, then: Absorption spectra were recorded with a Varian Cary 4000 UV-Vis double-beam spectrophotometer (Agilent Technologies, USA). For the determination of the absorption spectra, quartz cells with a 1 cm path length were used. Emission spectra and fluorescence quantum yield were obtained on a Quantaurus-QY Absolute PL quantum yield spectrometer C11347 (Hamamatsu Photonics, Japan) or on a Varian Cary Eclipse fluorescence spectrometer (Agilent Technologies, USA).

The nature of data set [2]: Formation and stability of the NHS ester. The format is physicochemical. The method, then:
• Three stock solutions (A, B and C) were prepared. Solution A: 22 mg HATU (1-[bis(dimethylamino)methylene]-1H-1,2,3-triazolo[4,5-b]pyridinium 3-oxid hexafluorophosphate) in dry DMF (0.10 mL); solution B: Et3N (10 mg) in dry DMF (0.10 mL); solution C: N-hydroxysuccinimide (19 mg) in dry DMF (0.10 mL). To a solution of dye 5 (1.7 mg, 2.6 μmol) in dry DMF (0.10 mL), solutions A, B and C were added successively (14 μL of each solutions) under argon, and the mixture was stirred for 30 min at room temperature. HPLC analysis indicated the conversion degree of 94-95%. […] After removing DMF in vacuo, amide 5-Halo was isolated by preparative HPLC (˜1 mg, 46%), dissolved in DMSO (400 μL), and this stock-solution was used (after dilution with aqueous PBS to 1-5 μM) in labeling experiments with living cells (see section with imaging results). ESI-MS (C41H44C1F6N308, 855.27), positive mode: m/z (rel. int., %)=856 (100) [M+H]^+. HR-MS, ESI (positive mode): m/z=878.2591 (found [M+Na]^+), 878.2613 (calc.).

The conditions of data set [3]: cited from earlier work.
Data set [4] in a line: D0.5 in 1,4-dioxane/water (closing into colorless spirolactone form). The format is physicochemical.
Data set [5] in a line: Solubility in water and organic solvents. The format is physicochemical. The settings on record: water, aqueous solutions, alcohols, DMSO, DMF, organic solvents as stated.
In data set [6] the test system is tubulin filaments in HeLa cells. Description: Live-cell tubulin labeling, confocal and STED imaging, HeLa cells. The format is cell-based. To be noted: 1-5 μM, 20 minutes at 37° C. The method, then: (§1) Either HeLa or U2OS cells were used. Cells were grown on #1.5 coverslips and cultured at 37° C. with 5% CO2 in DMEM (Dulbecco's modified Eagle's medium) supplemented with 10% FBS (fetal bovine serum), 1% sodium pyruvate and 1% penicillin/streptomycin. The U2OS cell line is a stable cell line which has a stable expression of the vimentin-HaloTag fusion protein (M. Ratz, I. Testa, S. W. Hell, S. Jakobs, Sci. Rep. 2015, 5, 9592). For the expression of vimentin-HaloTag fusion protein in HeLa cells, cells were transfected with 3 μg DNA/well using TurboFect™ Transfection Reagent (Fermentas/Thermo Scientific™, Life Technologies brand) in a 6 well plate. […]
(§2) Fluorescence detection was done in two spectral detection channels, 605-625 nm and 650-720 nm. […]
19-Tubulin was excited with a pulsed 640 nm laser and fluorescence was detected from 650-720 nm. […] For the STED image the fluorescence counts of 4 scans per line were accumulated with a pixel dwell time of 7 μs. […]
33-Tubulin was excited with a pulsed 640 nm laser and fluorescence was detected from 650-720 nm. […] The STED image was recorded with a pixel dwell time of 15 μs. […]

The test system of data set [7] is vimentin-HaloTag fusion protein in U2OS cells. The data set is described as follows: Live-cell labeling, confocal and STED imaging, U2OS cells. The format is cell-based. To be noted: 1 μM, 20 minutes at 37° C. The method, then:
as §1, §2
14a-Halo was excited with a pulsed 561 nm laser and fluorescence was detected in both detection windows: 605-625 nm and 650-720 nm. […] For the STED image the fluorescence counts of 3 scans per line were accumulated with a pixel dwell time of 15 μs. […]
6-ROX-Halo was excited with a pulsed 561 nm laser and fluorescence was detected in two detection windows: 605-625 nm and 650-720 nm. […] For the STED image the fluorescence counts of 3 scans per line were accumulated with a pixel dwell time of 15 μs. […]
19-Halo was excited with a pulsed 640 nm laser and fluorescence was detected from 650-720 nm. […]

Where [8] appears, read: aqueous PBS buffer, parent Q-rhodamine.
[9] abbreviates: aqueous solutions, dye 5 isomer 3.
[10] abbreviates: commercial dyes, solvent not stated.

In the case of `C[Si]1(C)c2cc(N3CCC3)ccc2C2(OC(=O)c3ccccc32)c2ccc(N3CCC3)cc21` [JF646, reference compound], the fluorescence quantum yield in data set [1] is 0.54.
With 5(6)-carboxy-Q-rhodamine, the “stability of N-hydroxysuccinimidyl (NHS) ester” value (“stability” below) in data set [2] was “does not form a stable N-hydroxysuccinimidyl ester”. In data set [3] (setting [8]), the absorption maximum is 540 nm, the emission maximum was 561 nm, the “extinction coefficient ε” value was 70 000 M^−1 cm^−1 and the fluorescence quantum yield is reported as 0.79.
With `CN(C)c1ccc2c(c1)[Si](C)(C)c1cc(N(C)C)ccc1C21OC(=O)c2ccccc21` [SiR, reference compound], the “D0.5 in 1,4-dioxane/water” value in data set [4] is on record as 64.5. Also, in data set [1] (PBS buffer pH 7.4), the “absorption maximum λmax” value was 645 nm, the “emission maximum λem” value was found to be 661 nm and the “extinction coefficient ε” value was found to be 93000 M⁻¹ cm⁻¹. In data set [1], this compound displayed a fluorescence quantum yield of 0.41.
As to `[CH3][Ge]1([CH3])[c]2cc(N3CC(O)C3)ccc2C2(OC(=O)c3ccc(C(=O)NCCOCCOCCCCCCCl)cc32)c2ccc(N3CC(O)C3)c[c]21` [Compound 33-Halo], in data set [1] (PBS buffer pH 7.4), the “absorption maximum λmax” value is recorded as 639 nm and the “emission maximum λem” value is 660 nm.
On to `O=C(O)c1ccc(C(=O)[O-])c(C2=c3cc4c(cc3Oc3cc5c(cc32)CC(O)CN5CC(F)(F)F)=[N+](CC(F)(F)F)CC(O)C4)c1` (stereo not drawn) [Compound 5, N,N′-Bis-(2,2,2-trifluoroethyl)-6′-carboxy-Q-rhodamine-β,β′-diol], for which the “stability” value in data set [2] is on record as “forms a stable NHS ester”. For the same compound, in data set [1] (setting [9]), the “absorption maximum λmax” value is recorded as 532 nm, the “emission maximum λmax” value is 553 nm and the “extinction coefficient ε” value stood at 56000 M⁻¹ cm⁻¹. In addition, the “fluorescence quantum yield Φfl, absolute value” in data set [1] (aqueous solutions, excitation at 488 nm, dye 5 isomer 3) amounted to 0.89. Moreover, the solubility result in data set [5] was “water-soluble”. The solubility entry in data set [5] (listed as 5-OH) is “much better soluble”.
On to `C[Si]1(C)c2cc(N3CC(O)C3)ccc2C2(OC(=O)c3ccc(C(=O)O)cc32)c2ccc(N3CC(O)C3)cc21` [Compound 42], for which the “D0.5 in 1,4-dioxane/water” value in data set [4] is 72.4. Moreover, in data set [1], the “fluorescence quantum yield relative to Oxazine 1” value is 0.42 and the fluorescence quantum yield is 0.42. In data set [1] (PBS buffer pH 7.4), the “absorption maximum λmax” value is listed as 641 nm; the “emission maximum λem” value was 662 nm; the “extinction coefficient ε” value was 51500 M⁻¹ cm⁻¹ and 51000 M⁻¹ cm⁻¹.
As to “N-Hydroxysuccinimidyl eater of N,N′-bis-(2,2,2-trifluoro-ethyl)-6′-carboxy-Q-rhodamine-β,β′-diol [Compound 5-NHS]”, the “stability” value in data set [2] is given as “stable”.
On to `[CH3][Ge]1([CH3])[c]2cc(N3CC(O)C3)ccc2C2(OC(=O)c3ccc(C(=O)O)cc32)c2ccc(N3CC(O)C3)c[c]21` [Compound 33], for which the “imaging performance in living cells (confocal and STED)” value in data set [6] is listed as “higher brightness”. Further, in data set [1] (PBS buffer pH 7.4), the “absorption maximum λmax” value was 631 nm; the “emission maximum λem” value was determined as 651 nm; the “extinction coefficient ε” value worked out at 61000 M⁻¹ cm⁻¹; the “fluorescence quantum yield Φfl, absolute value” came to 0.60. In data set [1], the fluorescence quantum yield is reported as 0.60.
Take `CN(C)c1ccc2[c](c1)[Ge]([CH3])([CH3])[c]1cc(N(C)C)ccc1C21OC(=O)c2ccc(C(=O)NCCOCCOCCCCCCCl)cc21` [Compound 19-Halo]: the “imaging performance in living cells (confocal and STED)” value in data set [7] is recorded as “high contrast images”.
Take `O=C(O)c1ccccc1C1=c2cc3c4c(c2Oc2c1cc1c5c2CCCN5CCC1)CCC[N+]=4CCC3.[Cl-]` [Rhodamine 101]: in data set [3] (in both organic and aqueous solutions), the fluorescence quantum yield entry is recorded as “more than 0.90”.
Take `CN(C)c1ccc2[c](c1)[Ge]([CH3])([CH3])[c]1cc(N(C)C)ccc1C21OC(=O)c2ccc(C(=O)O)cc21` [Compound 19]: the “D0.5 in 1,4-dioxane/water” value in data set [4] is 65.2. Moreover, in data set [1], the “fluorescence quantum yield relative to Oxazine 1” value is 0.43 and the fluorescence quantum yield is on record as 0.43. Further, in data set [1] (PBS buffer pH 7.4), the “absorption maximum λmax” value came to 634 nm, the “emission maximum λem” value is recorded as 655 nm and the “extinction coefficient ε” value was 97000 M⁻¹ cm⁻¹.
Regarding `COc1cc2c(c(Cl)c1O)Oc1c(cc(OC)c(O)c1Cl)C21OC(=O)c2ccc(C(=O)O)cc21` [Compound 6-JOE, 6-JOE], in data set [3] (setting [10]), the absorption maximum is reported as 520 nm, the emission maximum is given as 548 nm and the “extinction coefficient ε” value was 75 000 M^−1 cm^−1.
